Measured values reported in patent US4110327A, “2,3 Diketo-piperazinocarbonylamino alkanoic acids and derivatives” (Toyama Chemical Co., Ltd., priority 1974, dated 1978).
≈ marks a conversion by molar mass, not a printed value.

Assays:
Assay type in all cases: cell-based
[1] = system: Pseudomonas aeruginosa; assay: MIC against clinical isolates; conditions: unit assumed
[2] = system: Proteus vulgaris 3027; assay: MIC against standard strain, plate method; conditions: Proteus vulgaris 3027, standard strain; unit assumed
Description: (§1) The minimum inhibitory concentrations (MIC) was determined by the plate method disclosed in "Chemotherapy" (Japan), Vol. 16, (1968), pages 98 - 99. The culture medium used was a Heart infusion agar (pH 7.4). The number of the cells per plate used in the inoculum as 10^4 (10^6 cells/ml).

[3] = system: Klebsiella pneumoniae; assay: MIC against standard strain, plate method; conditions: unit assumed
Description: as §1

[4] = system: Staphylococcus aureus 209p; assay: MIC against standard strain, plate method; conditions: unit assumed
Description: as §1

[5] = system: Pseudomonas aeruginosa I.F.O.; assay: MIC against standard strain, plate method; conditions: unit assumed
Description: as §1

[6] = system: Escherichia coli NIHJ; assay: MIC against standard strain, plate method; conditions: unit assumed
Description: as §1

[7] = system: Escherichia coli; assay: MIC against clinical isolates; conditions: unit assumed
[8] = system: Staphylococcus aureus; assay: MIC against clinical isolates; conditions: unit assumed
[9] = system: Salmonella typhi-murium; assay: MIC against clinical isolates; conditions: unit assumed
[10] = system: Shigella flexneri; assay: MIC against clinical isolates; conditions: unit assumed
Description: as §1
(§2) MIC was determined in the same manner as in the preceding paragraph (1).

[11] = system: Shigella sonnei; assay: MIC against clinical isolates; conditions: unit assumed
Description: as §1, §2

[12] = system: Salmonella typhi; assay: MIC against clinical isolates; conditions: unit assumed
[13] = system: Klebsiella pneumoniae; assay: MIC against clinical isolates; conditions: unit assumed
[14] = clinical isolate GN (number not given; Table 5-3)

SMILES | MIC ([1]; clinical isolate GN 82) | MIC ([1]; clinical isolate GN 163) | MIC ([1]; clinical isolate GN 221) | MIC ([1]; clinical isolate GN 376) | MIC ([1]; clinical isolate GN 383) | MIC ([1]; clinical isolate GN 1035) | MIC ([1]; clinical isolate GN 1091) | MIC ([1]; clinical isolate GN 2565) | MIC ([1]; clinical isolate GN 2987) | MIC ([1]; clinical isolate S-1) | MIC ([1]; clinical isolate S-2) | MIC ([1]; clinical isolate S-3) | MIC ([1]; clinical isolate S-4) | MIC [2] | MIC [4] | MIC [5] | MIC [6] | MIC ([8]; clinical isolate F-2) | MIC ([8]; clinical isolate F-5) | MIC ([8]; clinical isolate MS 8619) | further results
CCCCCCN1CCN(C(=O)N[C@@H](C(=O)N[C@@H]2C(=O)N3[C@@H]2SC(C)(C)[C@@H]3C(=O)O)c2ccccc2)C(=O)C1 [compound 13] | 50 µg/mL (≈ 89.3 µM) | 25 µg/mL (≈ 44.7 µM) | 50 µg/mL (≈ 89.3 µM) | 50 µg/mL (≈ 89.3 µM) | 50 µg/mL (≈ 89.3 µM) | 50 µg/mL (≈ 89.3 µM) | 25 µg/mL (≈ 44.7 µM) | 50 µg/mL (≈ 89.3 µM) | 12.5 µg/mL (≈ 22.3 µM) | 50 µg/mL (≈ 89.3 µM) | 50 µg/mL (≈ 89.3 µM) | 100 µg/mL (≈ 179 µM) | 50 µg/mL (≈ 89.3 µM) | < 1.57 µg/mL | < 1.57 µg/mL | 25 µg/mL (≈ 44.7 µM) | < 1.57 µg/mL | 1.57 µg/mL (≈ 2.81 µM) | 200 µg/mL (≈ 357 µM) | 0.79 µg/mL (≈ 1.41 µM) | MIC [1, 14]: 50 µg/mL (≈ 89.3 µM); MIC [3]: < 1.57 µg/mL; MIC ([7]; clinical isolate GN 3465): 25 µg/mL (≈ 44.7 µM); MIC ([7]; clinical isolate K-3): 100 µg/mL (≈ 179 µM); MIC ([8]; clinical isolate F-1): 12.5 µg/mL (≈ 22.3 µM); MIC ([9]; clinical isolate SL 858): 0.79 µg/mL (≈ 1.41 µM); MIC ([9]; clinical isolate SL 2136): 200 µg/mL (≈ 357 µM); MIC ([10]; clinical isolate JS 11215): 12.5 µg/mL (≈ 22.3 µM); MIC ([10]; clinical isolate JS 11839): 1.57 µg/mL (≈ 2.81 µM); MIC ([11]; clinical isolate JS 11232): 12.5 µg/mL (≈ 22.3 µM); MIC ([12]; clinical isolate SL 819): 6.25 µg/mL (≈ 11.2 µM); MIC ([12]; clinical isolate SL 2169): 3.13 µg/mL (≈ 5.59 µM); MIC ([13]; clinical isolate GN 917): 12.5 µg/mL (≈ 22.3 µM); MIC ([13]; clinical isolate GN 4081): 25 µg/mL (≈ 44.7 µM); MIC ([13]; clinical isolate GN 4117): 25 µg/mL (≈ 44.7 µM)
CC1(C)S[C@@H]2[C@H](NC(=O)C(c3ccccc3)S(=O)(=O)O)C(=O)N2[C@H]1C(=O)O (stereo partly drawn) [Sodium Sulbenicillum, reference compound] | – | – | – | – | – | – | – | – | – | – | – | – | – | – | – | – | – | – | – | – | MIC ([9]; clinical isolate SL 858): 25 µg/mL; MIC ([9]; clinical isolate SL 2136): > 200 µg/mL; MIC ([10]; clinical isolate JS 11215): > 200 µg/mL; MIC ([10]; clinical isolate JS 11839): 12.5 µg/mL; MIC ([11]; clinical isolate JS 11232): > 200 µg/mL; MIC ([11]; clinical isolate JS 11755): > 200 µg/mL; MIC ([12]; clinical isolate SL 819): 6.25 µg/mL; MIC ([12]; clinical isolate SL 2169): 1.57 µg/mL
CC(=O)N1CCN(C(=O)N[C@@H](C(=O)N[C@@H]2C(=O)N3[C@@H]2SC(C)(C)[C@@H]3C(=O)O)c2ccccc2)C(=O)C1 [compound 1] | 25 µg/mL (≈ 48.3 µM) | 25 µg/mL (≈ 48.3 µM) | 25 µg/mL (≈ 48.3 µM) | 25 µg/mL (≈ 48.3 µM) | 50 µg/mL (≈ 96.6 µM) | 100 µg/mL (≈ 193 µM) | 25 µg/mL (≈ 48.3 µM) | 50 µg/mL (≈ 96.6 µM) | 25 µg/mL (≈ 48.3 µM) | 50 µg/mL (≈ 96.6 µM) | 100 µg/mL (≈ 193 µM) | 50 µg/mL (≈ 96.6 µM) | 50 µg/mL (≈ 96.6 µM) | 3.13 µg/mL (≈ 6.05 µM) | < 1.57 µg/mL | 25 µg/mL (≈ 48.3 µM) | < 1.57 µg/mL | 3.13 µg/mL (≈ 6.05 µM) | > 200 µg/mL | 1.57 µg/mL (≈ 3.03 µM) | MIC [1, 14]: 25 µg/mL (≈ 48.3 µM); MIC ([7]; clinical isolate GN 3465): 200 µg/mL (≈ 386 µM); MIC ([7]; clinical isolate K-2): 25 µg/mL (≈ 48.3 µM); MIC ([7]; clinical isolate K-3): > 200 µg/mL; MIC ([8]; clinical isolate MS 8596): 3.13 µg/mL (≈ 6.05 µM); MIC ([8]; clinical isolate MS 8684): 3.13 µg/mL (≈ 6.05 µM); MIC ([8]; clinical isolate MS 8713): 3.13 µg/mL (≈ 6.05 µM); MIC ([9]; clinical isolate SL 858): 12.5 µg/mL (≈ 24.2 µM); MIC ([9]; clinical isolate SL 2136): > 200 µg/mL; MIC ([10]; clinical isolate JS 11215): 100 µg/mL (≈ 193 µM); MIC ([10]; clinical isolate JS 11839): 3.13 µg/mL (≈ 6.05 µM); MIC ([11]; clinical isolate JS 11232): > 200 µg/mL; MIC ([12]; clinical isolate SL 819): 6.25 µg/mL (≈ 12.1 µM); MIC ([12]; clinical isolate SL 2169): 6.25 µg/mL (≈ 12.1 µM); MIC ([13]; clinical isolate GN 917): 25 µg/mL (≈ 48.3 µM); MIC ([13]; clinical isolate GN 3850): 25 µg/mL (≈ 48.3 µM); MIC ([13]; clinical isolate GN 4081): > 200 µg/mL; MIC ([13]; clinical isolate GN 4117): 200 µg/mL (≈ 386 µM)
CN1CCN(C(=O)N[C@@H](C(=O)N[C@@H]2C(=O)N3C(C(=O)[O-])=C(C[n+]4ccccc4)CS[C@H]23)c2ccccc2)C(=O)C1=O [compound 68] | 6.25 µg/mL (≈ 10.8 µM) | 12.5 µg/mL (≈ 21.6 µM) | 3.13 µg/mL (≈ 5.41 µM) | 12.5 µg/mL (≈ 21.6 µM) | 12.5 µg/mL (≈ 21.6 µM) | 50 µg/mL (≈ 86.4 µM) | 12.5 µg/mL (≈ 21.6 µM) | 50 µg/mL (≈ 86.4 µM) | 12.5 µg/mL (≈ 21.6 µM) | 25 µg/mL (≈ 43.2 µM) | 25 µg/mL (≈ 43.2 µM) | 25 µg/mL (≈ 43.2 µM) | 25 µg/mL (≈ 43.2 µM) | 1.57 µg/mL (≈ 2.71 µM) | 1.57 µg/mL (≈ 2.71 µM) | 12.5 µg/mL (≈ 21.6 µM) | < 0.79 µg/mL | 1.56 µg/mL (≈ 2.7 µM) | 0.78 µg/mL (≈ 1.35 µM) | 0.78 µg/mL (≈ 1.35 µM) | MIC ([1]; clinical isolate GN 244): 25 µg/mL (≈ 43.2 µM); MIC [3]: < 0.79 µg/mL; MIC ([8]; clinical isolate F-1): 1.56 µg/mL (≈ 2.7 µM); MIC ([8]; clinical isolate F-3): 0.78 µg/mL (≈ 1.35 µM); MIC ([8]; clinical isolate F-4): 6.25 µg/mL (≈ 10.8 µM); MIC ([8]; clinical isolate MS 8588): 1.56 µg/mL (≈ 2.7 µM); MIC ([8]; clinical isolate MS 8596): 1.56 µg/mL (≈ 2.7 µM); MIC ([8]; clinical isolate MS 8684): 1.56 µg/mL (≈ 2.7 µM); MIC ([8]; clinical isolate MS 8713): 3.13 µg/mL (≈ 5.41 µM); MIC ([13]; clinical isolate GN 917): 1.56 µg/mL (≈ 2.7 µM)
